Some results are limits rather than exact numbers.

This assay has as its target T1, AR (Homo sapiens, UniProt P10275).
T1 construct: endogenous in cells; host or cells: VCaP cells
T1 sequence (P10275 1-920): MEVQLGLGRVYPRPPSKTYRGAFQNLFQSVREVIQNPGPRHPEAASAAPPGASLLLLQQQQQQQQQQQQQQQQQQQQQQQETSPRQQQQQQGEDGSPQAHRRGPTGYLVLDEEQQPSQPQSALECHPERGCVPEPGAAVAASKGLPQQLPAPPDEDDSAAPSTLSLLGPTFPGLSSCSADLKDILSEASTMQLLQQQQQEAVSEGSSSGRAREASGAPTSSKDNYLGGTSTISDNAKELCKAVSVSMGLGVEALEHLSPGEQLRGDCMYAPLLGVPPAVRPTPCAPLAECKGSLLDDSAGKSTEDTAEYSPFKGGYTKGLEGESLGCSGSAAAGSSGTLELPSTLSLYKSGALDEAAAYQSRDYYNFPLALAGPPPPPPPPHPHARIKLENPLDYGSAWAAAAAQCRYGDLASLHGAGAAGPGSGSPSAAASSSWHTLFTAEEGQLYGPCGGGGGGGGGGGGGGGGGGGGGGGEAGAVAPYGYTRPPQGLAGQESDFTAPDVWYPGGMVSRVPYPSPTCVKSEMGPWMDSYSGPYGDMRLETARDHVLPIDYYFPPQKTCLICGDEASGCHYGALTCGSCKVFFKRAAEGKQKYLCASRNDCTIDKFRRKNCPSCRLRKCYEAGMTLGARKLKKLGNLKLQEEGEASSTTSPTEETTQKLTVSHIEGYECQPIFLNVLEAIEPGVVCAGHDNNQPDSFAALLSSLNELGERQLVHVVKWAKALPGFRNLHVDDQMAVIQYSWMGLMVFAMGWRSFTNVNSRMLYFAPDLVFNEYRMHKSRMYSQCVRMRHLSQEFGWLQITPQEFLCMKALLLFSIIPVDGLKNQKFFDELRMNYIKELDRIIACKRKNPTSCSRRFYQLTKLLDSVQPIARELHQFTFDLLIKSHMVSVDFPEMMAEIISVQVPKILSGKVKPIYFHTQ
Description: VCAP AR Degradation Assay. It counts as cell-based. The note with it: for Y (AR degradation efficiency, % of DMSO control): class symbols *; for DC50: class symbols A-C, read-out: DC50. In a few lines:
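AR protein in lysates quantified by sandwich ELISA after 24 h exposure of VCaP cells at 37 °C to 10 concentrations (1:3 steps, 5 μM top, final). Four-parameter logistic fit of percent-of-DMSO levels gave DC50 (50% degradation), EC50 and minimal AR level Y.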

As for `C[C@@H]1CN(CCOc2ccc(N3C(=S)N(c4ccc(C#N)c(Cl)c4)C(=O)C3(C)C)cc2C(C)(F)F)C[C@H](C)N1CC(=O)Nc1cccc(NC2CCC(=O)NC2=O)c1` (stereo partly drawn) [Example 269, 2-((2S,6R)-4-(2-(4-(3-(3-chloro-4-cyanophenyl)-5,5-dimethyl-4-oxo-2-thioxoimidazolidin-1-yl)-2-(1,1-difluoroethyl)phenoxy)ethyl)-2,6-dimethylpiperazin-1-yl)-N-(3-(2,6-dioxopiperidin-3-ylamino)phenyl)acetamide], the “Y (AR degradation efficiency, % of DMSO control)” value is “* (0<Y<=25%)” and the 50% degradation concentration (DC50) was < 100 nM.

Regarding `CCc1c(OCCN2C[C@@H](C)N(CC(=O)Nc3cccc(NC4CCC(=O)NC4=O)c3)[C@@H](C)C2)ccc(N2C(=S)N(c3ccc(C#N)c(C(F)(F)F)c3)C(=O)C2(C)C)c1C` (stereo partly drawn) [Example 270, 2-((2R,6S)-4-(2-(4-(3-(4-cyano-3-(trifluoromethyl)phenyl)-5,5-dimethyl-4-oxo-2-thioxoimidazolidin-1-yl)-2-ethyl-3-methylphenoxy)ethyl)-2,6-dimethylpiperazin-1-yl)-N-(3-(2,6-dioxopiperidin-3-ylamino)phenyl)acetamide], the “Y (AR degradation efficiency, % of DMSO control)” value was “** (25%<Y<=35%)” and the DC50 fell in the range of 100 to 500 nM.

`CCc1c(OCCN2C[C@@H](C)N(CC(=O)Nc3cccc(NC4CCC(=O)NC4=O)c3)[C@@H](C)C2)ccc(N2C(=S)N(c3ccc(C#N)c(C(F)(F)F)c3)C(=O)C2(C)C)c1F` (stereo partly drawn) [Example 271, 2-((2S,6R)-4-(2-(4-(3-(4-cyano-3-(trifluoromethyl)phenyl)-5,5-dimethyl-4-oxo-2-thioxoimidazolidin-1-yl)-2-ethyl-3-fluorophenoxy)ethyl)-2,6-dimethylpiperazin-1-yl)-N-(3-(2,6-dioxopiperidin-3-ylamino)phenyl)acetamide]: the “Y (AR degradation efficiency, % of DMSO control)” value is on record as “* (0<Y<=25%)” and the half-maximal degradation concentration (DC50) is < 100 nM.

On to `C[C@@H]1CN(CCOc2ccc(N3C(=S)N(c4ccc(C#N)c(C(F)(F)F)c4)C(=O)C3(C)C)cc2C2CC2)CCN1CC(=O)Nc1cccc(NC2CCC(=O)NC2=O)c1` (stereo partly drawn) [Example 272, 2-((R)-4-(2-(4-(3-(4-cyano-3-(trifluoromethyl)phenyl)-5,5-dimethyl-4-oxo-2-thioxoimidazolidin-1-yl)-2-cyclopropylphenoxy)ethyl)-2-methylpiperazin-1-yl)-N-(3-(2,6-dioxopiperidin-3-ylamino)phenyl)acetamide], for which the “Y (AR degradation efficiency, % of DMSO control)” value was “* (0<Y<=25%)” and the DC50 is < 100 nM.

Consider `CCc1cc(N2C(=S)N(c3ccc(C#N)c(C(F)(F)F)c3)C(=O)C2(C)C)ccc1CCCN1C[C@@H](C)N(CC(=O)Nc2cccc(NC3CCC(=O)NC3=O)c2)C[C@H]1C` (stereo partly drawn) [Example 273, 2-((2R,5R)-4-(3-(4-(3-(4-cyano-3-(trifluoromethyl)phenyl)-5,5-dimethyl-4-oxo-2-thioxoimidazolidin-1-yl)-2-ethylphenyl)propyl)-2,5-dimethylpiperazin-1-yl)-N-(3-(2,6-dioxopiperidin-3-ylamino)phenyl)acetamide], for which the “Y (AR degradation efficiency, % of DMSO control)” value is reported as “* (0<Y<=25%)” and the DC50 was < 100 nM.

`CCc1cc(N2C(=S)N(c3ccc(C#N)c(C(F)(F)F)c3)C(=O)C2(C)C)ccc1OCCN1CCN([C@H](C)C(=O)Nc2cccc(NC3CCC(=O)NC3=O)c2)[C@@H](C)C1` (stereo partly drawn) [Example 274, (2R)-2-((S)-4-(2-(4-(3-(4-cyano-3-(trifluoromethyl)phenyl)-5,5-dimethyl-4-oxo-2-thioxoimidazolidin-1-yl)-2-ethylphenoxy)ethyl)-2-methylpiperazin-1-yl)-N-(3-(2,6-dioxopiperidin-3-ylamino)phenyl)propanamide]: the “Y (AR degradation efficiency, % of DMSO control)” value is recorded as “* (0<Y<=25%)” and the DC50 is < 100 nM.

On to `CCc1cc(N2C(=S)N(c3ccc(C#N)c(C(F)(F)F)c3)C(=O)C2(C)C)ccc1OCCN1CCN([C@@H](C)C(=O)Nc2cccc(NC3CCC(=O)NC3=O)c2)[C@@H](C)C1` (stereo partly drawn) [Example 275, (2S)-2-((S)-4-(2-(4-(3-(4-cyano-3-(trifluoromethyl)phenyl)-5,5-dimethyl-4-oxo-2-thioxoimidazolidin-1-yl)-2-ethylphenoxy)ethyl)-2-methylpiperazin-1-yl)-N-(3-(2,6-dioxopiperidin-3-ylamino)phenyl)propanamide], for which the “Y (AR degradation efficiency, % of DMSO control)” value is listed as “* (0<Y<=25%)” and the DC50 was < 100 nM.

For `C[C@@H]1CN(CCOc2ccc(N3C(=S)N(c4ccc(C#N)c(C(F)(F)F)c4)C(=O)C3(C)C)cc2Cl)CCN1CC(=O)Nc1cccc(NC2CCC(=O)NC2=O)c1` (stereo partly drawn) [Example 276, 2-((R)-4-(2-(2-chloro-4-(3-(4-cyano-3-(trifluoromethyl)phenyl)-5,5-dimethyl-4-oxo-2-thioxoimidazolidin-1-yl)phenoxy)ethyl)-2-methylpiperazin-1-yl)-N-(3-(2,6-dioxopiperidin-3-ylamino)phenyl)acetamide], the “Y (AR degradation efficiency, % of DMSO control)” value was “* (0<Y<=25%)” and the half-maximal degradation concentration (DC50) is < 100 nM.

For `C[C@@H]1CN(CCOc2ccc(N3C(=S)N(c4ccc(C#N)c(C(F)(F)F)c4)C(=O)C3(C)C)cc2F)CCN1CC(=O)Nc1cccc(NC2CCC(=O)NC2=O)c1` (stereo partly drawn) [Example 277, 2-((R)-4-(2-(4-(3-(4-cyano-3-(trifluoromethyl)phenyl)-5,5-dimethyl-4-oxo-2-thioxoimidazolidin-1-yl)-2-fluorophenoxy)ethyl)-2-methylpiperazin-1-yl)-N-(3-(2,6-dioxopiperidin-3-ylamino)phenyl)acetamide], the “Y (AR degradation efficiency, % of DMSO control)” value was “*** (35%<Y<50%)” and the DC50 is < 100 nM.

Turning to `C[C@@H]1CN(CCOc2ccc(N3C(=S)N(c4ccc(C#N)c(C(F)(F)F)c4)C(=O)C3(C)C)cc2F)C[C@H](C)N1CC(=O)Nc1cccc(NC2CCC(=O)NC2=O)c1` (stereo partly drawn) [Example 278, 2-((2S,6R)-4-(2-(4-(3-(4-cyano-3-(trifluoromethyl)phenyl)-5,5-dimethyl-4-oxo-2-thioxoimidazolidin-1-yl)-2-fluorophenoxy)ethyl)-2,6-dimethylpiperazin-1-yl)-N-(3-(2,6-dioxopiperidin-3-ylamino)phenyl)acetamide], the “Y (AR degradation efficiency, % of DMSO control)” value is listed as “* (0<Y<=25%)” and the DC50 is < 100 nM.

Regarding `CCc1cc(N2C(=S)N(c3ccc(C#N)c(C(F)(F)F)c3)C(=O)C2(C)C)ccc1CCCN1CCN(CC(=O)Nc2cccc(NC3CCC(=O)NC3=O)c2)[C@@H](C)C1` (stereo partly drawn) [Example 279, 2-((S)-4-(3-(4-(3-(4-cyano-3-(trifluoromethyl)phenyl)-5,5-dimethyl-4-oxo-2-thioxoimidazolidin-1-yl)-2-ethylphenyl)propyl)-2-methylpiperazin-1-yl)-N-(3-(2,6-dioxopiperidin-3-ylamino)phenyl)acetamide], the “Y (AR degradation efficiency, % of DMSO control)” value is “* (0<Y<=25%)” and the DC50 was < 100 nM.

Take `CCc1cc(N2C(=S)N(c3ccc(C#N)c(C(F)(F)F)c3)C(=O)C2(C)C)ccc1OCCN1CCN([C@H](C)C(=O)Nc2cccc(NC3CCC(=O)NC3=O)c2)[C@H](C)C1` (stereo partly drawn) [Example 280, (2R)-2-((R)-4-(2-(4-(3-(4-cyano-3-(trifluoromethyl)phenyl)-5,5-dimethyl-4-oxo-2-thioxoimidazolidin-1-yl)-2-ethylphenoxy)ethyl)-2-methylpiperazin-1-yl)-N-(3-(2,6-dioxopiperidin-3-ylamino)phenyl)propanamide]: the “Y (AR degradation efficiency, % of DMSO control)” value was “*** (35%<Y<50%)” and the DC50 lay within 100 to 500 nM.

As for `CCc1cc(N2C(=S)N(c3ccc(C#N)c(C(F)(F)F)c3)C(=O)C2(C)C)ccc1OCCN1CCN([C@@H](C)C(=O)Nc2cccc(NC3CCC(=O)NC3=O)c2)[C@H](C)C1` (stereo partly drawn) [Example 281, (2S)-2-((R)-4-(2-(4-(3-(4-cyano-3-(trifluoromethyl)phenyl)-5,5-dimethyl-4-oxo-2-thioxoimidazolidin-1-yl)-2-ethylphenoxy)ethyl)-2-methylpiperazin-1-yl)-N-(3-(2,6-dioxopiperidin-3-ylamino)phenyl)propanamide], the “Y (AR degradation efficiency, % of DMSO control)” value is reported as “* (0<Y<=25%)” and the half-maximal degradation concentration (DC50) is < 100 nM.

`C[C@@H]1CN(CCOc2ccc(N3C(=S)N(c4ccc(C#N)c(C(F)(F)F)c4)C(=O)C3(C)C)cc2Cl)C[C@H](C)N1CC(=O)Nc1cccc(NC2CCC(=O)NC2=O)c1` (stereo partly drawn) [Example 282, 2-((2S,6R)-4-(2-(2-chloro-4-(3-(4-cyano-3-(trifluoromethyl)phenyl)-5,5-dimethyl-4-oxo-2-thioxoimidazolidin-1-yl)phenoxy)ethyl)-2,6-dimethylpiperazin-1-yl)-N-(3-(2,6-dioxopiperidin-3-ylamino)phenyl)acetamide]: the “Y (AR degradation efficiency, % of DMSO control)” value is “* (0<Y<=25%)” and the DC50 is < 100 nM.
